Test results from patent US8722849B2, “Polypeptides” (Novo Nordisk A/S, priority 2011, dated 2014).
Starred links: 1 amine or outer side, 2 acyl side, 3 side chain; linkers in the order of their positions; H or OH if unused. Positions of bridges follow the written chain, without caps; N, C: chain ends. Residues, ends and D or L forms follow the SMILES beside them. *: point of attachment. C20 diacid = O=C(O)CCCCCCCCCCCCCCCCCCC(=O)*; C18 diacid = O=C(O)CCCCCCCCCCCCCCCCC(=O)*; γGlu = O=C(O)[C@H](CCC(=O)[*:2])N[*:1]

Tests used:
Assay type in all cases: cell-based
[1] = molecular target: T1, human calcitonin receptor (Homo sapiens, UniProt P30988); test: Assay (II)a functional CRE-luciferase assay, human calcitonin receptor; settings: Table 7; human calcitonin (CTa) receptor
T1 construct: expressed in transfected cells; host or cells: BHK570
T1 sequence (P30988 25-474): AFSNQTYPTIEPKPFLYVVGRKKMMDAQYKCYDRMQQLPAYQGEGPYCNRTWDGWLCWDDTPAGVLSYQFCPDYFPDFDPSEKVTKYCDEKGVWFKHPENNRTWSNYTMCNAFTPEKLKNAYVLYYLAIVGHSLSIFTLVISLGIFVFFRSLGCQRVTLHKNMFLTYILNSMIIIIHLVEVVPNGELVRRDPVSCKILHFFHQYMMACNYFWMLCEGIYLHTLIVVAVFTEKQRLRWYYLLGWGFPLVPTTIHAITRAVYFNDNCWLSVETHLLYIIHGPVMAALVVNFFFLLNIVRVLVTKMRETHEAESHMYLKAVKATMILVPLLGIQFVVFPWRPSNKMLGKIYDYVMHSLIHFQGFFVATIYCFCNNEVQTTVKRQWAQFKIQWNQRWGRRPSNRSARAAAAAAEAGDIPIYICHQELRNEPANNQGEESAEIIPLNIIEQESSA

[2] = molecular target: T2, rat amylin 3(a) receptor (rat calcitonin(a) receptor + rat RAMP3) (Rattus norvegicus, UniProt P32214+Q9JJ73); test: Assay (II)b functional cAMP FlashPlate assay, rat amylin receptor; settings: Table 11
T2 construct: expressed in transfected cells; host or cells: BHK tk'ts 13
T2 sequence (P32214 25-479 isoform P32214-2 limits assumed): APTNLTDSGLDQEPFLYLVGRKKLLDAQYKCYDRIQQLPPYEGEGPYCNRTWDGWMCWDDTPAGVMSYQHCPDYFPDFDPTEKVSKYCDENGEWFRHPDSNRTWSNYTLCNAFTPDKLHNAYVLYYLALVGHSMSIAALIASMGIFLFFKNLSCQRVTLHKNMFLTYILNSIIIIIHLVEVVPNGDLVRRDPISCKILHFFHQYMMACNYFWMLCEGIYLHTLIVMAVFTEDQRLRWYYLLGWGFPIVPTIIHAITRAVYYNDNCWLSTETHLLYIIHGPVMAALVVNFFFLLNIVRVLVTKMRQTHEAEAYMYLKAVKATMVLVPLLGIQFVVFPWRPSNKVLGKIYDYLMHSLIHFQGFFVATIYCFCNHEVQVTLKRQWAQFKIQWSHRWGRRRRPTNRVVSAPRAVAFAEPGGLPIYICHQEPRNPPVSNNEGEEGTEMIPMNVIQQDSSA
T2 sequence (Q9JJ73 23-147 partner): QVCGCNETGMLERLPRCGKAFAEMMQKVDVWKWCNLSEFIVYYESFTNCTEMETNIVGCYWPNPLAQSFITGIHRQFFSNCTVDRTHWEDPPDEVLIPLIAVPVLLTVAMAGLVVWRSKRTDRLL
Outline: (§1)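 BHK tk'ts 13 cells transiently transfected with rat calcitonin(a) receptor, alone or with rat RAMP3 (amylin 3(a)), were stimulated 24 hours later with sample for 30 min in buffer containing IBMX. cAMP measured by competitive radioactive FlashPlate assay, scintillation read after 3 h detection incubation.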

[3] = molecular target: T3, rat calcitonin (a) receptor (Rattus norvegicus, UniProt P32214); test: Assay (II)b functional cAMP FlashPlate assay, rat calcitonin receptor; settings: Table 11; read-out: CTa receptor rat EC50
T3 construct: expressed in transfected cells; host or cells: BHK tk'ts 13
T3 sequence (P32214 25-479 isoform P32214-2 limits assumed): T2 sequence (P32214 25-479 isoform P32214-2 limits assumed)
Outline: as §1

## CC[C@H](C)[C@H](NC(=O)[C@@H]1CCCN1C(=O)CNC(=O)[C@H](Cc1ccccc1)NC(=O)[C@H](CC(N)=O)NC(=O)[C@H](CC(N)=O)NC(=O)[C@H](CO)NC(=O)[C@H](CO)NC(=O)[C@H](Cc1c[nH]cn1)NC(=O)[C@H](Cc1c[nH]cn1)NC(=O)[C@H](CC(C)C)NC(=O)[C@H](Cc1ccccc1)NC(=O)[C@H](CCC(=O)O)NC(=O)[C@H](C)NC(=O)[C@H](CC(C)C)NC(=O)[C@H](CCCNC(=N)N)NC(=O)[C@H](CCC(N)=O)NC(=O)[C@@H](NC(=O)[C@H](C)NC(=O)[C@@H]1CSSC[C@H](NC(=O)[C@H](Cc2c[nH]cn2)NC(=O)CC[C@H](NC(=O)CCCCCCCCCCCCCCCCC(=O)O)C(=O)O)C(=O)N[C@@H](CC(N)=O)C(=O)N[C@@H]([C@@H](C)O)C(=O)N[C@@H](C)C(=O)N[C@@H]([C@@H](C)O)C(=O)N1)[C@@H](C)O)C(=O)N[C@@H](CC(C)C)C(=O)N1CCC[C@H]1C(=O)N1CCC[C@H]1C(=O)N[C@H](C(=O)N[C@@H](CC(N)=O)C(=O)N[C@H](C(=O)NCC(=O)N[C@@H](CO)C(=O)N[C@@H](CC(N)=O)C(=O)N[C@H](C(=O)N[C@@H](Cc1ccc(O)cc1)C(N)=O)[C@@H](C)O)C(C)C)[C@@H](C)O [Example 48, N-alpha-[(S)-4-Carboxy-4-(17-carboxyheptadecanoylamino)butyryl]-[His1,Glu14,His17]-pramlintide] ({C18 diacid-γGlu}-HCNTATCATQRLAEFLHHSSNNFGPILPPTNVGSNTY-NH2; disulfide 2-7 (inferred))
[1]
  EC50: 0.112 nM
[2]
  EC50: 0.015 nM
[3]
  EC50: 0.375 nM

## CC[C@H](C)[C@H](NC(=O)[C@@H]1CCCN1C(=O)CNC(=O)[C@H](Cc1ccccc1)NC(=O)[C@H](CC(N)=O)NC(=O)[C@H](CC(N)=O)NC(=O)[C@H](CO)NC(=O)[C@H](CO)NC(=O)[C@H](Cc1c[nH]cn1)NC(=O)[C@H](Cc1c[nH]cn1)NC(=O)[C@H](CC(C)C)NC(=O)[C@H](Cc1ccccc1)NC(=O)[C@H](CCC(=O)O)NC(=O)[C@H](C)NC(=O)[C@H](CC(C)C)NC(=O)[C@H](CCCNC(=N)N)NC(=O)[C@H](CCC(N)=O)NC(=O)[C@@H](NC(=O)[C@H](C)NC(=O)[C@@H]1CSSC[C@H](NC(=O)[C@H](CCCCN)NC(=O)[C@H](CCC(=O)O)NC(=O)CC[C@H](NC(=O)CCCCCCCCCCCCCCCCCCC(=O)O)C(=O)O)C(=O)N[C@@H](CC(N)=O)C(=O)N[C@@H]([C@@H](C)O)C(=O)N[C@@H](C)C(=O)N[C@@H]([C@@H](C)O)C(=O)N1)[C@@H](C)O)C(=O)N[C@@H](CC(C)C)C(=O)N1CCC[C@H]1C(=O)N1CCC[C@H]1C(=O)N[C@H](C(=O)N[C@@H](CC(N)=O)C(=O)N[C@H](C(=O)NCC(=O)N[C@@H](CO)C(=O)N[C@@H](Cc1c[nH]cn1)C(=O)N[C@H](C(=O)N[C@@H](Cc1ccc(O)cc1)C(N)=O)[C@@H](C)O)C(C)C)[C@@H](C)O [Example 56, N-alpha-[(S)-4-Carboxy-4-(19-carboxynonadecanoylamino)butyryl]-Glu-[Glu14,His17,His35]-pramlintide] ({C20 diacid-γGlu}-EKCNTATCATQRLAEFLHHSSNNFGPILPPTNVGSHTY-NH2; disulfide 3-8 (inferred))
[1]
  EC50: 0.352 nM
[2]
  EC50: 0.643 nM
[3]
  EC50: 4.97 nM

## CC[C@H](C)[C@H](NC(=O)[C@@H]1CCCN1C(=O)CNC(=O)[C@H](Cc1ccccc1)NC(=O)[C@H](CC(N)=O)NC(=O)[C@H](CC(N)=O)NC(=O)[C@H](CO)NC(=O)[C@H](CO)NC(=O)[C@H](Cc1c[nH]cn1)NC(=O)[C@H](CCCNC(=N)N)NC(=O)[C@H](CC(C)C)NC(=O)[C@H](Cc1ccccc1)NC(=O)[C@H](CCC(=O)O)NC(=O)[C@H](C)NC(=O)[C@H](CC(C)C)NC(=O)[C@H](CCCNC(=N)N)NC(=O)[C@H](CCC(N)=O)NC(=O)[C@@H](NC(=O)[C@H](C)NC(=O)[C@@H]1CSSC[C@H](NC(=O)[C@H](CCCCN)NC(=O)[C@H](CCC(=O)O)NC(=O)CC[C@H](NC(=O)CCCCCCCCCCCCCCCCCCC(=O)O)C(=O)O)C(=O)N[C@@H](CC(N)=O)C(=O)N[C@@H]([C@@H](C)O)C(=O)N[C@@H](C)C(=O)N[C@@H]([C@@H](C)O)C(=O)N1)[C@@H](C)O)C(=O)N[C@@H](CC(C)C)C(=O)N1CCC[C@H]1C(=O)N1CCC[C@H]1C(=O)N[C@H](C(=O)N[C@@H](CC(N)=O)C(=O)N[C@H](C(=O)NCC(=O)N[C@@H](CO)C(=O)N[C@@H](Cc1c[nH]cn1)C(=O)N[C@H](C(=O)N[C@@H](Cc1ccc(O)cc1)C(N)=O)[C@@H](C)O)C(C)C)[C@@H](C)O [Example 58, N-alpha-[(S)-4-Carboxy-4-(19-carboxynonadecanoylamino)butyryl]-Glu-[Glu14,Arg17,His35]-pramlintide] ({C20 diacid-γGlu}-EKCNTATCATQRLAEFLRHSSNNFGPILPPTNVGSHTY-NH2; disulfide 3-8 (inferred); C-terminus assumed)
[1]
  EC50: 0.606 nM
[2]
  EC50: 0.063 nM
[3]
  EC50: 2.23 nM

## CC[C@H](C)[C@H](NC(=O)[C@@H]1CCCN1C(=O)CNC(=O)[C@H](Cc1ccccc1)NC(=O)[C@H](CC(N)=O)NC(=O)[C@H](CC(N)=O)NC(=O)[C@H](CO)NC(=O)[C@H](CO)NC(=O)[C@H](Cc1c[nH]cn1)NC(=O)[C@H](Cc1c[nH]cn1)NC(=O)[C@H](CC(C)C)NC(=O)[C@H](Cc1ccccc1)NC(=O)[C@H](CCC(=O)O)NC(=O)[C@H](C)NC(=O)[C@H](CC(C)C)NC(=O)[C@H](CCCNC(=N)N)NC(=O)[C@H](CCC(N)=O)NC(=O)[C@@H](NC(=O)[C@H](C)NC(=O)[C@@H]1CSSC[C@H](NC(=O)[C@H](CCCCN)NC(=O)CC[C@H](NC(=O)CCCCCCCCCCCCCCCCC(=O)O)C(=O)O)C(=O)N[C@@H](CC(N)=O)C(=O)N[C@@H]([C@@H](C)O)C(=O)N[C@@H](C)C(=O)N[C@@H]([C@@H](C)O)C(=O)N1)[C@@H](C)O)C(=O)N[C@@H](CC(C)C)C(=O)N1CCC[C@H]1C(=O)N1CCC[C@H]1C(=O)N[C@H](C(=O)N[C@@H](CC(N)=O)C(=O)N[C@H](C(=O)NCC(=O)N[C@@H](CO)C(=O)N[C@@H](Cc1c[nH]cn1)C(=O)N[C@H](C(=O)N[C@@H](Cc1ccc(O)cc1)C(N)=O)[C@@H](C)O)C(C)C)[C@@H](C)O [Example 59, N-alpha-[(S)-4-Carboxy-4-(17-carboxyheptadecanoylamino)butyryl]-[Glu14,His17,His35]-pramlintide] ({C18 diacid-γGlu}-KCNTATCATQRLAEFLHHSSNNFGPILPPTNVGSHTY-NH2; disulfide 2-7 (inferred))
[1]
  EC50: 0.0605 nM
[2]
  EC50: 0.023 nM
[3]
  EC50: 0.148 nM

## CC[C@H](C)[C@H](NC(=O)[C@@H]1CCCN1C(=O)CNC(=O)[C@H](Cc1ccccc1)NC(=O)[C@H](CC(N)=O)NC(=O)[C@H](CC(N)=O)NC(=O)[C@H](CO)NC(=O)[C@H](CO)NC(=O)[C@H](Cc1c[nH]cn1)NC(=O)[C@H](CCCNC(=N)N)NC(=O)[C@H](CC(C)C)NC(=O)[C@H](Cc1ccccc1)NC(=O)[C@H](CCC(=O)O)NC(=O)[C@H](C)NC(=O)[C@H](CC(C)C)NC(=O)[C@H](CCCNC(=N)N)NC(=O)[C@H](CCC(N)=O)NC(=O)[C@@H](NC(=O)[C@H](C)NC(=O)[C@@H]1CSSC[C@H](NC(=O)[C@H](CCCCN)NC(=O)CC[C@H](NC(=O)CCCCCCCCCCCCCCCCC(=O)O)C(=O)O)C(=O)N[C@@H](CC(N)=O)C(=O)N[C@@H]([C@@H](C)O)C(=O)N[C@@H](C)C(=O)N[C@@H]([C@@H](C)O)C(=O)N1)[C@@H](C)O)C(=O)N[C@@H](CC(C)C)C(=O)N1CCC[C@H]1C(=O)N1CCC[C@H]1C(=O)N[C@H](C(=O)N[C@@H](CC(N)=O)C(=O)N[C@H](C(=O)NCC(=O)N[C@@H](CO)C(=O)N[C@@H](Cc1c[nH]cn1)C(=O)N[C@H](C(=O)N[C@@H](Cc1ccc(O)cc1)C(N)=O)[C@@H](C)O)C(C)C)[C@@H](C)O [Example 61, N-alpha-[(S)-4-Carboxy-4-(17-carboxyheptadecanoylamino)butyryl]-[Glu14,Arg17,His35]-pramlintide] ({C18 diacid-γGlu}-KCNTATCATQRLAEFLRHSSNNFGPILPPTNVGSHTY-NH2; disulfide 2-7 (inferred))
[1]
  EC50: 0.335 nM
[2]
  EC50: 0.038 nM
[3]
  EC50: 2.36 nM
